The source of these data is patent publication US10344060B2 (priority 2013, dated 2019).

For this experiment, the target named is hNav1.7 (Homo sapiens, UniProt Q15858). Put plainly: cell-based. It is filed as cell-based. The following applies: Table 12; PatchXpress, tonic block; read-out: PX hNav1.7 Tonic IC50.
Chain of hNav1.7 (Q15858 whole entry): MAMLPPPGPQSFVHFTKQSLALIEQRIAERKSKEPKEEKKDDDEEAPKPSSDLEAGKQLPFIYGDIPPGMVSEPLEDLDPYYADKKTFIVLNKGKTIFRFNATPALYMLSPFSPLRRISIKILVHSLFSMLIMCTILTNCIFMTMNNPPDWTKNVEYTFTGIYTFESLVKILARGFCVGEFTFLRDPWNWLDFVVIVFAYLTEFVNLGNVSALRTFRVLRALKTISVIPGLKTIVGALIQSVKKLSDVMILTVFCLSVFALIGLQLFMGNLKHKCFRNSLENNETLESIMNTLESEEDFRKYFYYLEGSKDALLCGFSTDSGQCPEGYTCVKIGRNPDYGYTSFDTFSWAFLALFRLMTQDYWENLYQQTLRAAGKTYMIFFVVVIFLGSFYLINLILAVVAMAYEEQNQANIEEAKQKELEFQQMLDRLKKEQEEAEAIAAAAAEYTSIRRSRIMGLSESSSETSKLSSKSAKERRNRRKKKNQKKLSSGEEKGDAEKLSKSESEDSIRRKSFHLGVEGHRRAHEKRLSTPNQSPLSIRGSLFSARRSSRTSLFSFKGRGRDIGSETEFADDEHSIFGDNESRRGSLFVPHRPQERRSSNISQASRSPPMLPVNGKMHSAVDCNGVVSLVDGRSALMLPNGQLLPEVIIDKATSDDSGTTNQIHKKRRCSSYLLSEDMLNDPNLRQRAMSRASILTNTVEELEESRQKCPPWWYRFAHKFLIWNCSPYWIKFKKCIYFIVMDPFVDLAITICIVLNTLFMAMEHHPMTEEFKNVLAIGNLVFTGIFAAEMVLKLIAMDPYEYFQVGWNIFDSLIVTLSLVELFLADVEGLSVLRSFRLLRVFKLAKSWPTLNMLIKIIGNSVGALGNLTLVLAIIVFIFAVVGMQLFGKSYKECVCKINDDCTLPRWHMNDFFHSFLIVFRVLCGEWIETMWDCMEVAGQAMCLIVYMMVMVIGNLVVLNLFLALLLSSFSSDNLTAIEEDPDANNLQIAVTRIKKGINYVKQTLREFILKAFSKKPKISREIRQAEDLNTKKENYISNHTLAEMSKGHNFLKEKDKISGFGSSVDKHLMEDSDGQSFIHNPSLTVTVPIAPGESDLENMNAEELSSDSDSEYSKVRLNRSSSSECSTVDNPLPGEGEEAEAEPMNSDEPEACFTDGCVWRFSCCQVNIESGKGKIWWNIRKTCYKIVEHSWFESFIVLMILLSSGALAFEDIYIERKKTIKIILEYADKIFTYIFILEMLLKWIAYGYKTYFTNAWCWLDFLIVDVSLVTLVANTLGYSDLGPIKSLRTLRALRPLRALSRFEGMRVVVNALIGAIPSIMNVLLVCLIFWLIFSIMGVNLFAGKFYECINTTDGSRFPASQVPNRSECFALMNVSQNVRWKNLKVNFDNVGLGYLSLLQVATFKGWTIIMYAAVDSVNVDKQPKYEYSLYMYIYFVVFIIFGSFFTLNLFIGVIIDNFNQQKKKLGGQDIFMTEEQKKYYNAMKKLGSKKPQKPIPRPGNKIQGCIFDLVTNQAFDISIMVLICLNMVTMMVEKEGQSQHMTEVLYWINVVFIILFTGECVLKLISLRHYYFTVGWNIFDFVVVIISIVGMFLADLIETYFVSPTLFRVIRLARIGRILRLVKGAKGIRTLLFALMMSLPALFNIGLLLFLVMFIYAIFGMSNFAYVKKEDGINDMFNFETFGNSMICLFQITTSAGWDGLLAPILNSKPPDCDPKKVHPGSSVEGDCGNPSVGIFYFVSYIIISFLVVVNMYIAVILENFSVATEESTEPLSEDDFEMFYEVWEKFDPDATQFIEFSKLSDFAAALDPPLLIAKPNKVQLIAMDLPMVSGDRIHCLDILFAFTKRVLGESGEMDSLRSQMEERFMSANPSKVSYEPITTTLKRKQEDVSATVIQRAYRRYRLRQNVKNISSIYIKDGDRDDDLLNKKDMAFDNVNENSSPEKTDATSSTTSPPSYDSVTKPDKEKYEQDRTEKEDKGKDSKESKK
For `C#CC[C@H](N)C(=O)N[C@@H](Cc1ccc(O)cc1)C(=O)N[C@H]1CSSC[C@@H]2NC(=O)[C@@H]3CSSC[C@@H](C(=O)N[C@@H](CCCNC(=N)N)C(=O)N[C@@H](CCCCN)C(=O)N[C@@H](CCC(=O)O)C(=O)N[C@H](C(N)=O)[C@@H](C)CC)NC(=O)[C@H](Cc4ccccc4)NC(=O)[C@H](CC(C)C)NC(=O)[C@H](CCCCN)NC(=O)[C@H](CSSC[C@H](NC(=O)[C@H]([C@@H](C)O)NC(=O)[C@H](Cc4c[nH]c5ccccc45)NC(=O)[C@H](CCCC)NC(=O)[C@H](Cc4c[nH]c5ccccc45)NC(=O)[C@H](CCCCN)NC(=O)[C@H](CCC(N)=O)NC1=O)C(=O)N[C@@H](CC(=O)O)C(=O)N[C@@H](CO)C(=O)N[C@@H](CCCCN)C(=O)N[C@@H](CCCNC(=N)N)C(=O)N[C@@H](C)C(=O)N3)NC(=O)[C@H](CCCNC(=N)N)NC(=O)[C@H](CC(C)C)NC(=O)CNC(=O)[C@H](CCC(=O)O)NC2=O` [compound 853], the half-maximal inhibitory concentration (IC50) (as a rule, the concentration that gives 50% inhibition) was determined as 15.3 nM.

Turning to `C#CC[C@H](N)C(=O)N[C@@H](Cc1ccc(O)cc1)C(=O)N[C@H]1CSSC[C@@H]2NC(=O)[C@@H]3CSSC[C@@H](C(=O)N[C@@H](CCCNC(=N)N)C(=O)N[C@@H](CCCCN)C(=O)N[C@@H](CCC(=O)O)C(=O)N[C@H](C(N)=O)[C@@H](C)CC)NC(=O)[C@H](Cc4c[nH]c5ccccc45)NC(=O)[C@H](CCC)NC(=O)[C@H](CCCCN)NC(=O)[C@H](CSSC[C@H](NC(=O)[C@H]([C@@H](C)O)NC(=O)[C@H](Cc4c[nH]c5ccccc45)NC(=O)[C@H](CCCC)NC(=O)[C@H](Cc4c[nH]c5ccccc45)NC(=O)[C@H](CCCCN)NC(=O)[C@H](CCC(N)=O)NC1=O)C(=O)N[C@@H](CC(=O)O)C(=O)N[C@@H](CO)C(=O)N[C@@H](CCCCN)C(=O)N[C@@H](CCCNC(=N)N)C(=O)N[C@@H](C)C(=O)N3)NC(=O)[C@H](CCCNC(=N)N)NC(=O)[C@H](CC(C)C)NC(=O)CNC(=O)[C@H](CCC(=O)O)NC2=O` [compound 857], the IC50 was found to be 3.03 nM.

As to `C#CC[C@@H]1NC(=O)[C@@H]2CSSC[C@H](NC(=O)[C@H](Cc3ccc(O)cc3)NC(=O)[C@@H](N)CC#N)C(=O)N[C@@H](CCC(N)=O)C(=O)N[C@@H](CCCCN)C(=O)N[C@@H](Cc3c[nH]c4ccccc34)C(=O)N[C@@H](CCCC)C(=O)N[C@@H](Cc3c[nH]c4ccccc34)C(=O)N[C@@H]([C@@H](C)O)C(=O)N[C@H]3CSSC[C@H](NC(=O)[C@H](CCCNC(=N)N)NC(=O)[C@H](CC(C)C)NC(=O)CNC1=O)C(=O)N[C@@H](CCCCN)C(=O)N[C@@H](CC(C)C)C(=O)N[C@@H](Cc1c[nH]c4cc(Br)ccc14)C(=O)N[C@H](C(=O)N[C@@H](CCCNC(=N)N)C(=O)N[C@@H](CCCCN)C(=O)N[C@@H](CCC(=O)O)C(=O)N[C@H](C(N)=O)[C@@H](C)CC)CSSC[C@H](NC(=O)[C@H](C)NC(=O)[C@H](CCCNC(=N)N)NC(=O)[C@H](CCCCN)NC(=O)[C@H](CO)NC(=O)[C@H](CC(=O)O)NC3=O)C(=O)N2` [compound 873], the IC50 came to 8.47 nM.

Regarding `C#CC[C@@H]1NC(=O)[C@@H]2CSSC[C@H](NC(=O)[C@H](Cc3ccc(O)cc3)NC(=O)[C@@H](N)CC#N)C(=O)N[C@@H](CCC(N)=O)C(=O)N[C@@H](CCCCN)C(=O)N[C@@H](Cc3c[nH]c4ccccc34)C(=O)N[C@@H](CCCC)C(=O)N[C@@H](Cc3c[nH]c4ccccc34)C(=O)N[C@@H]([C@@H](C)O)C(=O)N[C@H]3CSSC[C@H](NC(=O)[C@H](CCCNC(=N)N)NC(=O)[C@H](CC(C)C)NC(=O)CNC1=O)C(=O)N[C@@H](CCCCN)C(=O)N[C@@H](CC(C)C)C(=O)N[C@@H](Cc1c[nH]c4cc(C)ccc14)C(=O)N[C@H](C(=O)N[C@@H](CCCNC(=N)N)C(=O)N[C@@H](CCCCN)C(=O)N[C@@H](CCC(=O)O)C(=O)N[C@H](C(N)=O)[C@@H](C)CC)CSSC[C@H](NC(=O)[C@H](C)NC(=O)[C@H](CCCNC(=N)N)NC(=O)[C@H](CCCCN)NC(=O)[C@H](CO)NC(=O)[C@H](CC(=O)O)NC3=O)C(=O)N2` [compound 874], the IC50 was 14 nM.
